Test results from patent publication US8455214B2, “Methods for determining chemotherapeutic agents targeting alpha-glucan pathways and uses thereof” (priority 2009, dated 2013).
Read-outs that look alike come from different tables or passages of the source.

What was measured:
Mtb GlgE = Mtb GlgE (Mycobacterium tuberculosis, UniProt P9WQ17); assay type: biochemical; conditions: for Km: read-out: Km^app
Mtb = conditions: reference 14; cited from earlier work
[1] = system: M. smegmatis ΔglgE mutant; experiment: Sensitivity of the M. smegmatis ΔglgE mutant toward mono- and disaccharides (growth on Middlebrook 7H10 agar); assay type: cell-based; conditions: for growth of the mutant: glucose disaccharides
From the text: FIG. 2A-2F. Characterization of the M. smegmatis ΔglgE mutant. […] (B). Trehalose sensitivity of the ΔglgE mutant. […] (D) Trehalose sensitivity of the ΔglgB mutant. (E) M1P accumulation in the ΔglgE and ΔglgB mutants determined by TLC/autoradiography analysis of extracts from cells labeled with 14C-trehalose for the indicated time intervals. (F) Maltose accumulation in Δpep2 mutant strains determined by TLC/autoradiography analysis of cell extracts from cells labeled with 14C-trehalose for 30 min. In (B) and (D), equal dilutions of cultures were spotted onto Middlebrook 7H10 agar plates containing trehalose. Comp. refers to mutants complemented with the respective WT genes.
The sensitivity was highly specific, since growth of the mutant was not inhibited by other glucose disaccharides like maltose or α,β-trehalose [α-D-glucopyranosyl-(1→1)-β-D-glucopyranoside].

trehalose synthase TreS = conditions: reference 13; cited from earlier work
[2] = system: Mtb ΔtreS ΔglgE (pMV361::treS); assay type: cell-based, Mycobacterium tuberculosis; conditions: in the presence of 5 mM VA; TLC
Mtb WT = assay type: cell-based, Mycobacterium tuberculosis
[3] = system: M. smegmatis ΔglgB mutant; assay type: cell-based; conditions: to a somewhat smaller extent than ΔglgE
[4] = acceptor maltohexaose with 1 mM M1P
[5] = donor M1P with 1 mM maltohexaose

Chain of Mtb GlgE (P9WQ17 whole entry): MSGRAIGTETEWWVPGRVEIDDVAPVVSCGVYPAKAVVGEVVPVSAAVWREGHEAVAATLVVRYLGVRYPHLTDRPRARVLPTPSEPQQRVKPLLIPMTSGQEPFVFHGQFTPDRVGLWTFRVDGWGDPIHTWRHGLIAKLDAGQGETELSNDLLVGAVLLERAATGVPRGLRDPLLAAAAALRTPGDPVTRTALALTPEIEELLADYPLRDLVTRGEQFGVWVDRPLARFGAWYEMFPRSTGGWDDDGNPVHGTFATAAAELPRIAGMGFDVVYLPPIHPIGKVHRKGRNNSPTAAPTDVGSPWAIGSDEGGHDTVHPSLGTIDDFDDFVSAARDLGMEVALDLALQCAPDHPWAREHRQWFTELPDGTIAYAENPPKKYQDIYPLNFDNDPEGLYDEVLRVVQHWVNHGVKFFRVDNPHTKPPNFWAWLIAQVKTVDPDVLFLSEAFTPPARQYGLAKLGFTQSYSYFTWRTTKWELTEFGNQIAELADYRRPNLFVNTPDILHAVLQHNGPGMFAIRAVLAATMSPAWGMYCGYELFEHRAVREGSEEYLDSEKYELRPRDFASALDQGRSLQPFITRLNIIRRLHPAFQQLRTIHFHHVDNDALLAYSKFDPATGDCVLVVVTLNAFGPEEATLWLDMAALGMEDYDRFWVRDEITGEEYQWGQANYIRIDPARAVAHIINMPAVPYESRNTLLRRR

O=P(O)(O)OC1OC(CO)C(OC2OC(CO)C(O)C(O)C2O)C(O)C1O (stereo not drawn) [β anomer of M1P]
GlgE activity as donor (Mtb GlgE): no activity

NNC(=O)c1ccncc1 [isoniazid]
1 mg/l expressed as multiple of the MIC (Mtb): 20 times the MIC

OC[C@H]1O[C@H](O[C@H]2[C@H](O)[C@@H](O)C(O)O[C@@H]2CO)[C@H](O)[C@@H](O)[C@@H]1O (mixture of isomers) [maltose]
growth of the mutant [1]: not inhibited

O=P(O)(O)O [inorganic phosphate]
phosphate converted to M1P (Mtb GlgE): ~10%
Km (Mtb GlgE; inorganic phosphate, reverse reaction, estimated): 6 ± 4 mM

maltohexaose
kcat^app (Mtb GlgE; [4]): 7.5 ± 0.4 s⁻¹
Km (Mtb GlgE; [4]): 13.3 ± 2.4 mM
kcat^app (Mtb GlgE; acceptor maltohexaose with 5 mM M1P): 15.4 ± 1.1 s⁻¹
Km (Mtb GlgE; acceptor maltohexaose with 5 mM M1P, pH 7.0, 37° C): 35 ± 8 mM

OC[C@H]1O[C@@H](O[C@H]2O[C@H](CO)[C@@H](O)[C@H](O)[C@H]2O)[C@H](O)[C@@H](O)[C@@H]1O [α,β-trehalose, α-D-glucopyranosyl-(1→1)-β-D-glucopyranoside]
growth of the mutant [1]: not inhibited

O=P(O)(O)O[C@H]1O[C@H](CO)[C@@H](O[C@H]2O[C@H](CO)[C@@H](O)[C@H](O)[C@H]2O)[C@H](O)[C@H]1O [M1P, α-D-glucopyranosyl(1→4)-α-D-glucopyranosyl 1-phosphate]
kcat^app (Mtb GlgE; [5]): 1.26 ± 0.07 s⁻¹
Km (Mtb GlgE; [5]): 0.25 ± 0.05 mM

OCC1=C[C@@H](N[C@H]2C[C@H](CO)[C@@H](O[C@H]3O[C@@H](CO)[C@H](O)[C@@H](O)[C@@H]3O)[C@H](O)[C@H]2O)[C@H](O)[C@@H](O)[C@@H]1O [VA, Validamycin A]
inhibition of TreS (trehalose synthase TreS): inhibit
M1P accumulation [2]: only low levels
tolerated concentration of the inhibitor (Mtb WT): 10 mM

OC[C@H]1O[C@H](O[C@H]2O[C@H](CO)[C@@H](O)[C@H](O)[C@H]2O)[C@H](O)[C@@H](O)[C@@H]1O [trehalose, α-D-glucopyranosyl-(1→1)-α-D-glucopyranoside]
sensitivity of the mutant [3]: sensitive
concentration that completely inhibited growth [1]: 0.5 mM
growth of the mutant [1]: bacteriostatic growth arrest
